Experiments:
[1] = xn = mol fraction of the nth substance listed; conditions: 318.15 K, 101 kPa, Liquid, Vibrating tube method
[2] = molar heat capacity at constant pressure; xn = mol fraction of the nth substance listed; conditions: 101 kPa, Liquid, Small sample (50 mg) DSC

CCCCCCn1cc[n+](C)c1.F[B-](F)(F)F [1-hexyl-3-methylimidazolium tetrafluoroborate] + CCO
[1]
Conditions | mass density [kg/m3]
x1 = 0.2832 | 989.8
x1 = 0.3846 | 1026.7
x1 = 0.4943 | 1056.7
x1 = 0.5486 | 1068.4
x1 = 0.6882 | 1093.8
x1 = 0.7748 | 1106.5
x1 = 0.7988 | 1109.6
x1 = 0.8521 | 1116.2

molar heat capacity at constant pressure [J/K/mol], [2]
Conditions | x1 = 0.1052 | x1 = 0.2011 | x1 = 0.2832 | x1 = 0.3846 | x1 = 0.4943 | x1 = 0.5486 | x1 = 0.6882 | x1 = 0.7879 | x1 = 0.8791
293.15 K | 152 | 184.5 | 209.9 | 240.4 | 272.3 | 288 | 328.8 | 358.6 | 387.1
298.15 K | 153.6 | 185.9 | 211.4 | 241.8 | 273.8 | 289.7 | 330.9 | 360.8 | 389.4
303.15 K | 155 | 187.3 | 212.8 | 243 | 275.2 | 291.3 | 332.9 | 363 | 391.6
308.15 K | 156.6 | 188.6 | 214.1 | 244.4 | 276.7 | 293 | 334.9 | 365 | 393.9
313.15 K | 158.1 | 189.9 | 215.4 | 245.7 | 278.1 | 294.6 | 336.9 | 367.1 | 396.1
318.15 K | 159.8 | 191.2 | 216.7 | 247.1 | 279.6 | 296.2 | 338.9 | 369 | 398.3

Source: the NIST ThermoML archive (doi:10.1016/j.fluid.2008.09.004)
